# ChEMBL document CHEMBL3045157, “Synthesis and evaluation of in vitro antitubercular activity and antimicrobial activity of some novel 4H-chromeno[2,3-d]pyrimidine via 2-amino-4-phenyl-4H-chromene-3-carbonitriles” (2011)
# Assays:
# Assay type in all cases: functional
# [1] = test system: Staphylococcus aureus; experiment: Antibacterial activity against Staphylococcus aureus ATCC 25923 after 24 hr by serial dilution method; details: ATCC 25923, 24 h
# [2] = test system: Streptococcus pyogenes; experiment: Antibacterial activity against Streptococcus pyogenes MTCC 443 after 24 hr by serial dilution method; details: MTCC 443, 24 h
# [3] = test system: Pseudomonas aeruginosa; experiment: Antibacterial activity against Pseudomonas aeruginosa MTCC 441 after 24 hr by serial dilution method; details: MTCC 441, 24 h
# [4] = test system: Aspergillus niger; experiment: Antifungal activity against Aspergillus niger MTCC 282 after 24 hr by serial dilution method
# [5] = test system: Mycobacterium tuberculosis; experiment: Antitubercular activity against Mycobacterium tuberculosis H37Rv by agar microdilution method
# [6] = test system: Escherichia coli; experiment: Antibacterial activity against Escherichia coli ATCC 25922 after 24 hr by serial dilution method; details: ATCC 25922, 24 h
Compound,MIC [1],MIC [2],MIC [3],"MIC ([4]; MTCC 282, 24 h)",MIC [5],MIC [6],MIC [4]
Nc1nc(=O)[nH]c2c1C(c1ccccc1)c1ccccc1O2 (stereo not given),125 mg/L,125 mg/L,62.5 mg/L,500 mg/L,500 mg/L,62.5 mg/L,
COC1=CC(=O)C[C@@H](C)[C@]12Oc1c(Cl)c(OC)cc(OC)c1C2=O [GRISEOFULVIN],,,,100 mg/L,,,
S=c1[nH]c2c(c(=S)[nH]1)C(c1ccccc1)c1c(ccc3ccccc13)O2 (stereo not given),125 mg/L,250 mg/L,125 mg/L,500 mg/L,100 mg/L,250 mg/L,
Nc1nc(=O)[nH]c2c1C(c1ccccc1)c1ccc3cccnc3c1O2 (stereo not given),125 mg/L,125 mg/L,500 mg/L,250 mg/L,125 mg/L,500 mg/L,
O=c1[nH]cnc2c1C(c1ccccc1)c1ccccc1O2 (stereo not given),250 mg/L,500 mg/L,250 mg/L,500 mg/L,500 mg/L,250 mg/L,
Nc1nc(=O)[nH]c2c1C(c1ccccc1)c1ccc(O)cc1O2 (stereo not given),125 mg/L,250 mg/L,125 mg/L,250 mg/L,125 mg/L,250 mg/L,
CO[C@H]1/C=C/O[C@@]2(C)Oc3c(C)c(O)c4c(O)c(c(/C=N/N5CCN(C)CC5)c(O)c4c3C2=O)NC(=O)/C(C)=C\C=C\[C@H](C)[C@H](O)[C@@H](C)[C@@H](O)[C@@H](C)[C@H](OC(C)=O)[C@@H]1C [RIFAMPIN],,,,,40 mg/L,,
S=c1[nH]c2c(c(=S)[nH]1)C(c1ccccc1)c1ccc3cccnc3c1O2 (stereo not given),62.5 mg/L,62.5 mg/L,125 mg/L,500 mg/L,200 mg/L,125 mg/L,
Nc1nc(=S)[nH]c2c1C(c1ccccc1)c1ccc3cccnc3c1O2 (stereo not given),125 mg/L,250 mg/L,62.5 mg/L,500 mg/L,500 mg/L,62.5 mg/L,
CC1(C)S[C@@H]2[C@H](NC(=O)[C@H](N)c3ccccc3)C(=O)N2[C@H]1C(=O)O [AMPICILLIN],100 mg/L,250 mg/L,100 mg/L,,,100 mg/L,
S=c1[nH]c2c(c(=S)[nH]1)C(c1ccccc1)c1ccc3ccccc3c1O2 (stereo not given),125 mg/L,250 mg/L,250 mg/L,500 mg/L,500 mg/L,250 mg/L,
Oc1ccc2c(c1)Oc1[nH]c(=S)[nH]c(=S)c1C2c1ccccc1 (stereo not given),62.5 mg/L,62.5 mg/L,250 mg/L,1000 mg/L,200 mg/L,125 mg/L,
O=c1[nH]cnc2c1C(c1ccccc1)c1ccc3ccccc3c1O2 (stereo not given),62.5 mg/L,62.5 mg/L,250 mg/L,1000 mg/L,125 mg/L,125 mg/L,
Nc1nc(=O)[nH]c2c1C(c1ccccc1)c1ccc3ccccc3c1O2 (stereo not given),125 mg/L,125 mg/L,250 mg/L,500 mg/L,1000 mg/L,500 mg/L,
S=c1[nH]c2c(c(=S)[nH]1)C(c1ccccc1)c1ccccc1O2 (stereo not given),500 mg/L,500 mg/L,250 mg/L,1000 mg/L,500 mg/L,250 mg/L,
Nc1nc(=S)[nH]c2c1C(c1ccccc1)c1ccc(O)cc1O2 (stereo not given),500 mg/L,250 mg/L,125 mg/L,125 mg/L,500 mg/L,250 mg/L,
O=c1[nH]cnc2c1C(c1ccccc1)c1ccc(O)cc1O2 (stereo not given),500 mg/L,500 mg/L,250 mg/L,1000 mg/L,62.5 mg/L,62.5 mg/L,
NYSTATIN,,,,,,,100 mg/L
O=c1[nH]cnc2c1C(c1ccccc1)c1c(ccc3ccccc13)O2 (stereo not given),125 mg/L,125 mg/L,125 mg/L,500 mg/L,125 mg/L,125 mg/L,
Nc1nc(=S)[nH]c2c1C(c1ccccc1)c1c(ccc3ccccc13)O2 (stereo not given),250 mg/L,500 mg/L,500 mg/L,1000 mg/L,1000 mg/L,500 mg/L,
Nc1nc(=S)[nH]c2c1C(c1ccccc1)c1ccc3ccccc3c1O2 (stereo not given),500 mg/L,500 mg/L,125 mg/L,1000 mg/L,1000 mg/L,500 mg/L,
Nc1nc(=O)[nH]c2c1C(c1ccccc1)c1c(ccc3ccccc13)O2 (stereo not given),62.5 mg/L,62.5 mg/L,500 mg/L,250 mg/L,250 mg/L,250 mg/L,
O=C(O)c1cn(C2CC2)c2cc(N3CCNCC3)c(F)cc2c1=O [CIPROFLOXACIN],50 mg/L,50 mg/L,,,,25 mg/L,
Nc1nc(=S)[nH]c2c1C(c1ccccc1)c1ccccc1O2 (stereo not given),250 mg/L,250 mg/L,125 mg/L,125 mg/L,500 mg/L,125 mg/L,
O=c1[nH]cnc2c1C(c1ccccc1)c1ccc3cccnc3c1O2 (stereo not given),125 mg/L,250 mg/L,125 mg/L,500 mg/L,500 mg/L,250 mg/L,
